The results in this text go back to US20170166870A1, “HUMAN HEPATIC 3D CO-CULTURE MODEL AND USES THEREOF” (Vrije Universiteit Brussel, priority 2014, published 2017).

Like-named read-outs stand apart in the source and are kept apart here.

Series [1] has as its system 3D HepaRG/HSC co-culture. In words: Single and repeated exposure, cell viability (% ATP), serum-free medium. Type of series: cell-based, human. As for the experimental part: Culture medium. Day 0 cells were resuspended in HepaRG thawing medium and from day 1 to 21 cells were kept in the HepaRG culture medium 0% DMSO, until day 8. For the repeated versus single compound exposure assays, on day 8, the HepaRG culture medium 0% DMSO was replaced by the Serum-free HepaRG maintenance medium described in Klein et. al. 2013 (HepaRG Induction/Toxicity medium, DMSO 0.5% (v/v), 2 μg/ml of epidermal growth factor and 10 μg/ml of hepatocyte growth factor) and kept in this medium until the end of culture.
(§1) Single and repeated exposure. For the single and repeated compound exposure cell spheroids (3D HepaRG/HSC, 3D HepaRG and 3D HSC) were exposed respectively on day 20 for 24 h or every second day from day 8 to day 21 in serum-free medium with no additional solvent. Cells were exposed to a range of 8 concentrations between 0.5 and 80 mM for APAP single-dose, 0.125 and 40 mM for APAP repeated-dose, 0.3 and 500 μM Allyl Alcohol (AA, Sigma-Aldrich), 1.9 and 1000 μM Methotrexate (MTX, Pfizer, NY, USA). For the recovery assay, on day 21, cells were washed using serum-free medium and kept for 3 extra days.
Cell viability assay was performed by measuring ATP production upon individual spheroid exposure to the different concentrations of the test compound. Cell spheroids were lysed individually for viability analysis using the Cell titer Glo kit (Promega) following the instructions of the manufacturer. Luminescence values were converted into percentage of ATP by comparison with controls and converted into dose-response curves using Prism 5 software.

In series [2] the test system is 3D HepaRG/HSC co-culture. In words: Single and repeated exposure, procollagen in culture supernatant. Conditions: repeated exposure, day 14; not observed at day 21. The class given is cell-based, human. The text has this:
(§2) FIG. 10: APAP and reference fibrotic compounds in single- and repeated-exposure of the 3D HepaRG/HSC co-culture. (A, C and E) cell viability, represented by % ATP and (B, D and F) gene expression. Error bars represent the standard deviation between independent assays (N=2) each point represents the pool of 5-6 spheroids. (D, F) Graph inserts represent the second repeat of the assay. Due to the variation between assays values could not be averaged together. Each point represents the pool of 5-6 spheroids. (G-H) Fibrosis read-outs at the protein level. (G) Procollagen measurements in culture supernatant upon single and repeated compound exposure (day 14 and 21) to 3D HepaRG/HSCs. (H) Procollagen measurements in culture supernatant upon 24 h incubation with the reference pro-fibrotic compounds of 3D HepaRG and 3D HSCmono-cultures.
(§3) Samples for pro-collagen measurement were five times concentrated using 10 kD Vivaspin 500 ultrafiltration columns (VWR, Radnor, Pa.), the resulting supernatant was analysed for the presence of Type I C-Peptide using the TAKARA (Chanteloup-en-Brie, France) kit.
(§4) Single and repeated exposure. For the single and repeated compound exposure cell spheroids (3D HepaRG/HSC, 3D HepaRG and 3D HSC) were exposed respectively on day 20 for 24 h or every second day from day 8 to day 21 in serum-free medium with no additional solvent. […]

For series [3], the system named is 3D HepaRG/HSC co-culture. Nature of the series: Single and repeated exposure, gene expression of HSC activation markers. The class given is cell-based, human. To be noted: for HSC activation (up-regulation of activation markers, mRNA): serum-free medium. As for the experimental part:
as §1
For the cell culture samples, total RNA from 4-6 pooled spheroids was extracted from cells using the RNeasy Micro Kit (Qiagen, Venlo, Limburg, Netherlands). In the mouse assays, sorted HSC from different mice were lysed separately. Total RNA from tissue cultured cells was extracted using ReliaPrep RNA Cell Miniprep System (Promega).
Reverse-transcription using the Revert Aid Kit (ThermoFisher Scientific, Waltham, Massachusetts, USA) allowed conversion of RNA to cDNA. The RT reaction was performed at 25° C. for ten minutes followed by 30 minutes at 50° C. For quantitative real-time polymerase chain reaction (qPCR), GoTaq QPCR Master Mix with BRYTE green (Promega) was used, subjected to qPCR in a 7500 real time PCR system and analysed using System SDS software v2.0.5 (Applied Biosystems, Waltham, Mass., USA), using GAPDH for normalisation. Reliability of GAPDH as house-keeping gene was determined using Normfinder (Anderson et al., 2004). Fold change differences between samples were determined using the comparative Ct (δδCt) method. The expression level of different targets, relative to GAPDH (δCt) and relative to the calibrator, was given by 2^−δδCt.

For series [4], the system named is 3D HepaRG and 3D HSC mono-cultures. Nature of the series: Procollagen in culture supernatant of mono-cultures, reference pro-fibrotic compounds. The class given is cell-based, human. Conditions: 3D mono-cultures, 24 h incubation.
Excerpt: as §2, §3, §4

Series [5] relates to 3D HepaRG/HSC co-culture. In words: mRNA expression of HSC activation markers (qPCR) after APAP incubation. The class given is cell-based, human. To be noted: 2.5 mM VPA, highest APAP concentrations. As for the experimental part: (§5) APAP toxicity assay was performed in 3D HepaRG/co-culture as well as in 3D HepaRG monoculture. For 24 h, starting at day 20, cells were exposed to a range of APAP concentrations between 0.5 and 80 mM, keeping cells with the solvent (0.1% DMSO) as a control. For some experiments the culture medium was supplemented with 2.5 mM valproic acid (VPA sodium salt, Sigma-Aldrich) or with cytokine mixture (Raicevic et al.,2012)-interleukin (IL)-1β 25 ng/mL (Peprotech, Rocky Hill, N.J., USA), interferon (IFN)-γ 10^3 U/mL, tumor necrosis factor (TNF)-a 50 ng/mL, and IFN-α 3·10^3 U/mL (all from Prospec, Inc., East Brunswick, N.J., USA). For the recovery assay, at the end of APAP incubation, cells were washed using HepaRG culture 0% DMSO medium and kept in the same medium for 3 more days.
(§6) At the end of the incubation period, 5 spheroids per condition were pooled and lysed for RNA analyses, while the remaining spheroids per condition were lysed individually for viability analysis using the Cell titer Glo kit (Promega) for ATP measurements following the instructions of the manufacturer.
(§7) Total RNA was extracted from cells using the ReliaPrep RNA Cell Miniprep System (Promega, Madison, Wis.). Reverse-transcription using the Revert Aid Kit (ThermoFisher Scientific, St. Leon-Rot, Germany) allowed conversion of RNA to cDNA. The RT reaction was performed at 25° C. for ten minutes followed by 30 minutes at 50° C. For quantitative real-time polymerase chain reaction (qPCR), GoTaq QPCR Master Mix with BRYTE green (Promega, Madison, Wis.) was used, subjected to qPCR in a 7500 real time PCR system and analysed using System SDS software v2.0.5 (Applied Biosystems), using GAPDH for normalisation.

Series [6] deals with 3D HepaRG/HSC co-culture. Nature of the series: APAP toxicity assay, cell viability by ATP (Cell titer Glo). The class given is cell-based, human. To be noted: 2.5 mM VPA with APAP. As for the experimental part:
as §5, with “For 24 h, starting at day 20, cells were exposed to a range of APAP concentrations between 0.5 and 80 mM, keeping cells with the solvent (0.1% DMSO) as a control.” left out
as §6

Series [7] deals with 3D mouse hepatocyte/HSC co-culture (1Hep:2HSC). In words: LPS stimulation of 3D mouse hepatic co-cultures, aSMA and Col1a1 expression. Type of series: cell-based. Conditions: 6 days LPS treatment, day 9; 1Hep:2HSC ratio. The text has this: FIG. 1: Screen of hepatocyte:hepatic stellate cell ratios in 3D mouse cultures. Figure represents the HSC activation markers (A, B) and Hepatocyte markers (C) measured in the different 3D mouse hepatic co-cultures. A—basal gene expression of fibrotic markers (aSMA and Col1a1) on day 9 of culture. B—Fold increase of aSMA and Col1a1 on day 9 upon 6 days treatment with the pro-fibrotic factor LPS. Horizontal line corresponds to non-treated 3D co-cultures for each case. C—over-time gene expression of albumin (a) and CYP3A11 (b) in the 3D co-cultures where better results were obtained previously (2hep:1HSC and 1Hep:2HSC). Comparisons between groups were analyzed for statistical significance by one-way ANOVA followed by Tukey. *** p<0.001; ** p<0.01; * p<0.05. […]
Total RNA was extracted from cells using the ReliaPrep RNA Cell Miniprep System (Promega, Madison, Wis.). […] For quantitative real-time polymerase chain reaction (qPCR), GoTaq QPCR Master Mix with BRYTE green (Promega, Madison, Wis.) was used, subjected to qPCR in a 7500 real time PCR system and analysed using System SDS software v2.0.5 (Applied Biosystems), using GAPDH for normalisation. Reliability of GAPDH as house-keeping gene was determined using Normfinder (Andersen, Jensen et al. 2004) to produce the ΔCT values. […]

Series [8] has as its system 3D HepaRG/HSC co-culture. Nature of the series: Exposure to pro-fibrotic factors, gene expression. The class given is cell-based, human. As for the experimental part:
From day 14 to day 21, 3D HepaRG/HSC spheroids were exposed to a solution of 100 ng/ml Lipopolysaccharide (LPS, Sigma) in culture medium, refreshed every second day up to day 21. Incubation with the Transforming growth factor-β1 (TGF-β1, R&D systems inc., Minneapolis, Minn., USA) was performed on day 19 for 48 h at a concentration of 10 ng/ml in HepaRG Induction/Toxicity medium. On day 21, cells were lysed and gene expression was analyzed upon RNA extraction.
as §7

With `C=CCO` [Allyl Alcohol], the cell viability dose-response result in the series on 3D HepaRG/HSC co-culture [1] (repeated exposure) is given as “disappeared upon repeated exposure”. Also, the cell viability result in the series with 3D HepaRG/HSC co-culture [1] (single exposure) is recorded as “dose-response observed at the single exposure”. Moreover, the collagen secretion result is “high collagen secretion at day 14” in the series with 3D HepaRG/HSC co-culture [2] and “no collagen secretion is detected” in series [4]. The “HSC activation (up-regulation of activation markers, mRNA)” value with 3D HepaRG/HSC co-culture [3] (repeated exposure) and in the series with 3D HepaRG/HSC co-culture [3] (single exposure 24 h) was “increase of the HSC activation markers at mRNA levels” each time.
For `CN(Cc1cnc2nc(N)nc(N)c2n1)c1ccc(C(=O)N[C@@H](CCC(=O)O)C(=O)O)cc1` [MTX, Methotrexate], the cell viability result in the series with 3D HepaRG/HSC co-culture [1] is listed as “does not seem to affect cell viability at any of the tested concentrations”. Moreover, the “percentage of ATP production” value in the series with 3D HepaRG/HSC co-culture [1] (repeated exposure, lowest concentration) was “less than 20%”. Further, the collagen secretion result was “high collagen secretion at day 14” with 3D HepaRG/HSC co-culture [2] and “no collagen secretion is detected” in series [4]. In addition, in the series on 3D HepaRG/HSC co-culture [3] (repeated exposure 63 μM), the “recovery of HSC 3 days after compound washout” value is listed as “observed”. The “HSC activation (up-regulation of activation markers, mRNA)” value is “dramatically compensated” in the series with 3D HepaRG/HSC co-culture [3] (repeated exposure) and “no longer observed” with 3D HepaRG/HSC co-culture [3] (single exposure 24 h).
As for `CCCC(CCC)C(=O)O` [VPA, valproic acid], in the series with 3D HepaRG/HSC co-culture [5], the “effect on APAP-induced HSC markers” value is listed as “lower up-regulation of the HSC markers”. In addition, the “effect on APAP toxicity (cell viability)” value with 3D HepaRG/HSC co-culture [6] was “did not affect APAP toxicity”.
With Lipopolysaccharide [LPS], the “activation response (aSMA, Col1a1)” value in series [7] is “increased aSMA and Col1a1”. Besides, in the series on 3D HepaRG/HSC co-culture [8] (100 ng/ml LPS, 6 days), the “survivor markers (IL6, MMP1, CCL2, TNFα, IL1β) expression” value was “induced an up-regulation of the survivor markers”.
Consider “TGFβ: Transforming growth factor-β1, known pro-fibrogenic factor”, for which the “activation markers (Acta2, Col1a1, Col3a1, Loxl2) expression” value with 3D HepaRG/HSC co-culture [8] (10 ng/ml TGFβ, 48 h, day 21) was “acted on the activation markers”.
